In patent US20250230147A1, “LACTAMS AS CBL-B INHIBITORS” (Genentech, Inc., priority 2021, published 2025):
Structures can show the parent of a compound that is named as a salt.

Experiments:
Cbl-b = Cbl-b (Homo sapiens (Human), UniProt Q13191); assay: Cbl-b LCK Ub TR-FRET assay (Cbl-b Lck HTRF); format: biochemical
Procedure, shortened: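 Biotin-Cbl-b preincubated with compound (10-point 3-fold series) 60 min, then His-LCK with 1 mM ATP (2× mixture) added for 90 min at room temperature. Ubiquitination detected by TR-FRET using HA-ubiquitin/UBE2D2 adduct, anti-HA-D2 and streptavidin-Eu; IC50 normalised to no-LCK and DMSO controls.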

c-Cbl = c-Cbl (Homo sapiens (Human), UniProt P22681); assay: C-Cbl LCK Ub TR-FRET assay (c-cbl Lck HTRF); format: biochemical; details: for (fold-selectivity): C-cbl Lck HTRF IC50 relative to Cbl-b Lck HTRF IC50
c-Cbl, sequence (P22681 47-435): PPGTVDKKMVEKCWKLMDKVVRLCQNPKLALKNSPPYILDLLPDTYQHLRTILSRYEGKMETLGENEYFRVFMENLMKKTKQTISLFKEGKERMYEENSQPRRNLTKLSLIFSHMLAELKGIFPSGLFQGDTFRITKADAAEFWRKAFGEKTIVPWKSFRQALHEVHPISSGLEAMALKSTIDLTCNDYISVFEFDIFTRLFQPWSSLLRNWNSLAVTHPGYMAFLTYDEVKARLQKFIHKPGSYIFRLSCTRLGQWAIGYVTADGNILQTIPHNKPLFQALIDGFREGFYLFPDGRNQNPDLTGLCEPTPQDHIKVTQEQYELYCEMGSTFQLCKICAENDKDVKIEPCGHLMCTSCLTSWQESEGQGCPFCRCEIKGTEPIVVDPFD
Procedure, shortened: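 Signal is read once the detection mix has stood 20 min at ambient temperature. Curves are anchored by DMSO as maximum and by omission of LCK as minimum.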

Cbl-b, sequence (Q13191 40-426): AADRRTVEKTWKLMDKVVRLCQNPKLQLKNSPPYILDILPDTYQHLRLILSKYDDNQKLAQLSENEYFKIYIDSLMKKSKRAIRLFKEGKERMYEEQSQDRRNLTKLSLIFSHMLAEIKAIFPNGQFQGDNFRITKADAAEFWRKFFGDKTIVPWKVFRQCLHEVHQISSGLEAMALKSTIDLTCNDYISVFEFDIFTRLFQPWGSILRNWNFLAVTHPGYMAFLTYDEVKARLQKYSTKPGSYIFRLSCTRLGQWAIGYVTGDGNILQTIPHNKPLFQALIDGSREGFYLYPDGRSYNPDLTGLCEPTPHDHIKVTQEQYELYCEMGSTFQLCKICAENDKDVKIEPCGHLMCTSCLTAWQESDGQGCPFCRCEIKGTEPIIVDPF

Row | SMILES | IC50 (Cbl-b) | IC50 (c-Cbl) | (fold-selectivity) (c-Cbl)
1 | Cn1cnnc1[C@@H](F)C1(c2cccc(N3Cc4c(cc(CN)cc4C(F)(F)F)C3=O)c2)CC(F)(F)C1.O=CO [Compound 394, (S)-6-(aminomethyl)-2-(3-(3,3-difluoro-1-(fluoro(4-methyl-4H-1,2,4-triazol-3-yl)methyl)cyclobutyl)phenyl)-4-(trifluoromethyl)isoindolin-1-one formate] | 120 nM | 160 nM | (1.3x)
2 | CCCC1(O)CN(Cc2cc3c(c(C(F)(F)F)c2)CN(c2cccc(C4([C@@H](F)c5nncn5C)COC4)c2)C3=O)C1 [Compound 171, (R)-2-(3-(3-(fluoro(4-methyl-4H-1,2,4-triazol-3-yl)methyl)oxetan-3-yl)phenyl)-6-((3-hydroxy-3-propylazetidin-1-yl)methyl)-4-(trifluoromethyl)isoindolin-1-one] | 49 nM | 82 nM | 1.7x
3 | CO[C@@H]1CCN(Cc2cc3c(c(C(F)(F)F)c2)CN(c2cccc(C4([C@@H](F)c5nncn5C)COC4)c2)C3=O)C1 [Compound 47, 2-(3-(3-((R)-fluoro(4-methyl-4H-1,2,4-triazol-3-yl)methyl)oxetan-3-yl)phenyl)-6-(((R)-3-methoxypyrrolidin-1-yl)methyl)-4-(trifluoromethyl)isoindolin-1-one] | 100 nM | 180 nM | 1.8x
4 | Cn1cnnc1[C@@H](F)C1(c2cccc(N3Cc4c(cc(CN5CC[C@H](F)C5)cc4C(F)(F)F)C3=O)c2)COC1 [Compound 83, 2-(3-(3-((S)-fluoro(4-methyl-4H-1,2,4-triazol-3-yl)methyl)oxetan-3-yl)phenyl)-6-(((S)-3-fluoropyrrolidin-1-yl)methyl)-4-(trifluoromethyl)isoindolin-1-one] | 210 nM | 640 nM | 3.1x
5 | Cn1cnnc1CC1(c2cccc(N3Cc4c(cc(C5CCCN5)cc4C(F)(F)F)C3=O)c2)COC1.O=CO (racemic) [Compound 11, 2-(3-(3-((4-methyl-4H-1,2,4-triazol-3-yl)methyl)oxetan-3-yl)phenyl)-6-(pyrrolidin-2-yl)-4-(trifluoromethyl)isoindolin-1-one formate] | 420 nM | 620 nM | 1.5x
6 | C=CC1(O)CN(Cc2cc3c(c(C(F)(F)F)c2)CN(c2cccc(C4([C@H](F)c5nncn5C)COC4)c2)C3=O)C1 [Compound 170, (S)-2-(3-(3-(fluoro(4-methyl-4H-1,2,4-triazol-3-yl)methyl)oxetan-3-yl)phenyl)-6-((3-hydroxy-3-vinylazetidin-1-yl)methyl)-4-(trifluoromethyl)isoindolin-1-one] | 140 nM | 360 nM | 2.5x
7 | Cn1cnnc1CC(F)(F)c1cccc(N2Cc3c(cccc3C(F)(F)F)C2=O)c1 [Compound 15, 2-(3-(1,1-difluoro-2-(4-methyl-4H-1,2,4-triazol-3-yl)ethyl)phenyl)-4-(trifluoromethyl)isoindolin-1-one] | 3500 nM | 6400 nM | 1.8x
8 | Cn1cnnc1[C@H](F)C1(c2cccc(N3Cc4c(cccc4C(F)F)C3=O)c2)COC1 [Compound 59, (R)-4-(difluoromethyl)-2-(3-(3-(fluoro(4-methyl-4H-1,2,4-triazol-3-yl)methyl)oxetan-3-yl)phenyl)isoindolin-1-one] | 590 nM | 1300 nM | 2.1x
9 | CC(=O)N1CCN(Cc2cc3c(c(C(F)(F)F)c2)CN(c2cccc(C4([C@H](F)c5nncn5C)COC4)c2)C3=O)[C@@H](C(C)C)C1 [Compound 194, 6-(((S)-4-acetyl-2-isopropylpiperazin-1-yl)methyl)-2-(3-(3-((S)-fluoro(4-methyl-4H-1,2,4-triazol-3-yl)methyl)oxetan-3-yl)phenyl)-4-(trifluoromethyl)isoindolin-1-one] | 270 nM | 810 nM | 3.0x
10 | Cn1cnnc1[C@@H](F)C1(c2cccc(N3Cc4c(cc(CN5CC(C)(CCl)C5)cc4C(F)(F)F)C3=O)c2)COC1 [Compound 104, (S)-6-((3-(chloromethyl)-3-methylazetidin-1-yl)methyl)-2-(3-(3-(fluoro(4-methyl-4H-1,2,4-triazol-3-yl)methyl)oxetan-3-yl)phenyl)-4-(trifluoromethyl)isoindolin-1-one] | 48 nM | 89 nM | 1.9x
11 | Cn1cnnc1[C@H](F)C1(c2cccc(N3Cc4c(cc(CNC5(C)CCC5)cc4C(F)F)C3=O)c2)COC1 [Compound 249, (R)-4-(difluoromethyl)-2-(3-(3-(fluoro(4-methyl-4H-1,2,4-triazol-3-yl)methyl)oxetan-3-yl)phenyl)-6-(((1-methylcyclobutyl)amino)methyl)isoindolin-1-one formate] | 12 nM | 20 nM | –

Results, then the compound that gave them:

Row | IC50 (Cbl-b) | IC50 (c-Cbl) | (fold-selectivity) (c-Cbl) | SMILES
12 | 39 nM | 49 nM | (1.3x) | Cc1cnnn1CC1(c2cccc(N3Cc4c(cc(CNC5(C)CCC5)cc4C(F)F)C3=O)c2)COC1 [Compound 305, 4-(difluoromethyl)-2-(3-(3-((5-methyl-1H-1,2,3-triazol-1-yl)methyl)oxetan-3-yl)phenyl)-6-(((1-methylcyclobutyl)amino)methyl) isoindolin-1-one]
13 | 13 nM | 12 nM | (0.94x) | Cn1cnnc1[C@H](F)C1(c2cccc(N3Cc4c(cc(CNC5(C)CCC5)cc4C(F)(F)F)C3=O)c2)COC1 [Compound 494, (R)-2-(3-(3-(fluoro(4-methyl-4H-1,2,4-triazol-3-yl)methyl)oxetan-3-yl)phenyl)-6-(((1-methylcyclobutyl)amino)methyl)-4-(trifluoromethyl)isoindolin-1-one]
14 | 12 nM | 5.9 nM | (0.48x) | CC(C)Nc1cc(C2(Cc3nncn3C)CCC2)cc(N2Cc3c(cc(CN4CCN(C)C[C@@H]4C(C)C)cc3C(F)(F)F)C2=O)n1 [Compound 409, (S)-6-((2-isopropyl-4-methylpiperazin-1-yl)methyl)-2-(6-(isopropylamino)-4-(1-((4-methyl-4H-1,2,4-triazol-3-yl)methyl)cyclobutyl)pyridin-2-yl)-4-(trifluoromethyl)isoindolin-1-one]
15 | 18 nM | 16 nM | (0.91x) | CC(C)[C@H]1CN(C2CC2)CCN1Cc1cc2c(c(C(F)(F)F)c1)CN(c1cccc(C3([C@@H](F)c4nncn4C)COC3)c1)C2=O [Compound 405, 6-(((S)-4-cyclopropyl-2-isopropylpiperazin-1-yl)methyl)-2-(3-(3-((R)-fluoro(4-methyl-4H-1,2,4-triazol-3-yl)methyl)oxetan-3-yl)phenyl)-4-(trifluoromethyl)isoindolin-1-one]
16 | 15 nM | 16 nM | (1.1x) | Cn1cnnc1CC1(c2ccnc(N3Cc4c(cc(CNC5(C)CCC5)cc4C(F)(F)F)C3=O)c2)CCC1 [Compound 326, 2-(4-(1-((4-methyl-4H-1,2,4-triazol-3-yl)methyl)cyclobutyl)pyridin-2-yl)-6-(((1-methylcyclobutyl)amino)methyl)-4-(trifluoromethyl)isoindolin-1-one]
17 | 14 nM | 10 nM | (0.74x) | CC(C)[C@@H]1CN(Cc2cc3c(c(C(F)(F)F)c2)CN(c2cccc(C4(Cc5nncn5C)CC(F)(F)C4)c2)C3=O)CCN1 [Compound 428, (R)-2-(3-(3,3-difluoro-1-((4-methyl-4H-1,2,4-triazol-3-yl)methyl)cyclobutyl)phenyl)-6-((3-isopropylpiperazin-1-yl)methyl)-4-(trifluoromethyl)isoindolin-1-one]
18 | 46 nM | 63 nM | (1.4x) | CC(C)[C@H]1CN(C)CCN1C(C)c1cc2c(c(C(F)(F)F)c1)CN(c1cccc(C3([C@@H](F)c4nncn4C)CC(F)(F)C3)c1)C2=O (stereo partly drawn) [Compound 388, 2-(3-(3,3-difluoro-1-((R)-fluoro(4-methyl-4H-1,2,4-triazol-3-yl)methyl)cyclobutyl)phenyl)-6-(1-((S)-2-isopropyl-4-methylpiperazin-1-yl)ethyl)-4-(trifluoromethyl)isoindolin-1-one]
19 | 29 nM | 27 nM | (0.95x) | CC[C@H]1CN(C)CCN1Cc1cc2c(c(C(F)(F)F)c1)CN(c1cccc(C3(Cc4nncn4C)CC(F)(F)C3)c1)C2=O [Compound 401, (S)-2-(3-(3,3-difluoro-1-((4-methyl-4H-1,2,4-triazol-3-yl)methyl)cyclobutyl)phenyl)-6-((2-ethyl-4-methylpiperazin-1-yl)methyl)-4-(trifluoromethyl)isoindolin-1-one]
20 | 6.7 nM | 5.2 nM | (0.79x) | C[C@H](NC1(C)CCC1)c1cc2c(c(C(F)(F)F)c1)CN(c1cccc(C3([C@@H](F)c4nncn4C)COC3)c1)C2=O [Compound 248, 2-(3-(3-((R)-fluoro(4-methyl-4H-1,2,4-triazol-3-yl)methyl)oxetan-3-yl)phenyl)-6-((S)-1-((1-methylcyclobutyl)amino)ethyl)-4-(trifluoromethyl)isoindolin-1-one]
21 | 5.6 nM | 4.7 nM | (0.83x) | Cn1cnnc1CC1(c2cc(C3CC3)nc(N3Cc4c(cc(CNC5(C)CCC5)cc4C(F)(F)F)C3=O)c2)COC1 [Compound 300, 2-(6-cyclopropyl-4-(3-((4-methyl-4H-1,2,4-triazol-3-yl)methyl)oxetan-3-yl)pyridin-2-yl)-6-(((1-methylcyclobutyl)amino)methyl)-4-(trifluoromethyl)isoindolin-1-one]
